Test results reported in patent US10016343B2, “Solid stick antiperspirant compositions” (The Procter & Gamble Company, priority 2013, dated 2018).

Assay: Hygroscopicity (equilibrium moisture pick up) of antiperspirant active
Assay type: physicochemical
Details: 86% RH, 20° C., 5 days
Method: One way to evaluate the hygroscopic nature of an antiperspirant active is to determine the equilibrium moisture pick up of the active after 5 days in a controlled relative humidity environment. Specific humidity chambers can be created placing saturated salt solutions in desiccators at a specific temperature. Different salts are used to create different humidities, for example potassium chloride can be used to make an 86% relative humidity (RH) environment at 20° C. In general there is an increase in moisture pick up as humidity is increased for the antiperspirant actives shown, however there are clear differences in slope and amount of moisture pick up at high humidity. Materials with higher slope and larger increases at high humidity (i.e. 86% RH) are considered to be more hygroscopic. The aluminum zirconium trichlorohydrate active (metal to chloride ratio=1.6) from Inventive Example 1 is the least hygroscopic (28% moisture pick up at 86% RH) with the aluminum zirconium tetrachlorohydrate active (metal to chloride ratio=1.2) being substantially more hygroscopic (40% moisture pick up at 86% RH). […] This may explain the substantial difference observed in the amount of sweat measured between Inventive Examples 1 and 2. […]

Substance	moisture pick up (hygroscopicity) [%]
aluminum zirconium tetrachlorohydrate	40
aluminum zirconium trichlorohydrate	28
